# Assay results reported in patent publication US5208227A, “Method, compositions, and compounds for modulating brain excitability” (priority 1991, dated 1993).
# Read-outs that look alike come from different tables or passages of the source.
# Assays:
# [1] = tested on: GABA/benzodiazepine receptor-chloride ionopore complex (GBR complex); assay: modulation (inhibition) of [35S]TBPS binding; set-up: species or system rat (male Sprague-Dawley); MAXIMAL INHIBITION: unit not given here; conditions: for MAXIMAL INHIBITION: [35S]TBPS binding; for MAXIMAL INHIBITION / CONTROL IC50 / IC50 / +5 μM GABA IC50: rat cerebral cortex; for CONTROL IC50 / IC50 / +5 μM GABA IC50: inhibition of 2 nM [35S]TBPS binding
# Experimental: These procedures were performed as follows:
# In these FIGS, (.circle.) represents control without bicuculline; represents 0.5 micromolar bicuculline; (.quadrature.) represents 1.0 micromolar bicuculline; represents 2.0 micromolar bicuculline; and (Δ) represents 3.0 micromolar bicuculline.
# progesterone receptor = molecular target: T1, progesterone receptor (Rattus norvegicus, UniProt Q63449); assay: [3H]R5020 binding to the progesterone receptor in rat uterus; conditions: FIG. 5
# T1 sequence (Q63449 1-923): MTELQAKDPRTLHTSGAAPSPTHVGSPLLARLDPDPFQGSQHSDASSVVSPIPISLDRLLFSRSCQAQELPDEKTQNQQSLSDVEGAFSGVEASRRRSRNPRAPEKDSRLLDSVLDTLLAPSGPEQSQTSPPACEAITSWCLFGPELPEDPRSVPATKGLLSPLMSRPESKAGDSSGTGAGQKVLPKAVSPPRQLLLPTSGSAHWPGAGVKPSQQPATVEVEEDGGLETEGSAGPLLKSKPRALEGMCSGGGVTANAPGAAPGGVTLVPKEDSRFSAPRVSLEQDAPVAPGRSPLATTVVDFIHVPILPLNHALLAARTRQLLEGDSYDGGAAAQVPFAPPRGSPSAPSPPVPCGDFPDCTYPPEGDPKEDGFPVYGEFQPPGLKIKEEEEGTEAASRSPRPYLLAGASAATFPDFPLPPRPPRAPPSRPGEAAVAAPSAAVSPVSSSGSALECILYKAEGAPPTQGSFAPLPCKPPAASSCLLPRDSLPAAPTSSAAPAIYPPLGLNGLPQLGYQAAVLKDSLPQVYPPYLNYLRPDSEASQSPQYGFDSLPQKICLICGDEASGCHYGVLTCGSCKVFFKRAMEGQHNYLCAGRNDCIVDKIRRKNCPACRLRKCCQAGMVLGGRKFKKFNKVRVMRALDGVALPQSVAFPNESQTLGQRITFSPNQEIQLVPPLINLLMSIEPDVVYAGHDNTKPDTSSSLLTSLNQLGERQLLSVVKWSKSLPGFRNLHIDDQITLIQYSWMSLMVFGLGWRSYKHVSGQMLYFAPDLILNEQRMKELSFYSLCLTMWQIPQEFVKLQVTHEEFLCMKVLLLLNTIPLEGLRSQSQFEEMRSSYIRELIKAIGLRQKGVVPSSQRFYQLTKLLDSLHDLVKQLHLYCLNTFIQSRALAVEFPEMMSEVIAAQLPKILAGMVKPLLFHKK
# Description: The data plotted in FIG. 5 were obtained by performing assays in accordance with the procedures outlined above to determine the effect of progesterone metabolites and the progestin R5020 on the binding of [^3 H]R5020 to the progesterone receptor in rat uterus. All points on the plot of FIG. 5 represent the mean of triplicate determinations. The following compounds are those listed in FIG. 5: 5-alpha-pregnan-3-alpha-ol-20-one (DHP), 5-alpha-pregnan-3-alpha,21-diol-20-one (Th-DOC), and 5-beta-pregnane-3-alpha,20 diol (5 BETA).
# [2] = tested on: maximal electroshock (tonic component) in mice; set-up: unit not given here; conditions: literature data; cited from earlier work
# [3] = tested on: metrazol-induced convulsions in mice; set-up: key: NP: no protection; conditions: cited from earlier work
# [4] = tested on: (+)bicuculline-induced seizures in mice; set-up: key: NP: no protection; conditions: cited from earlier work
# [5] = tested on: picrotoxin-induced convulsions in mice; set-up: key: NP: no protection; conditions: cited from earlier work
# [6] = tested on: strychnine-induced convulsions in mice; set-up: key to STR (strychnine) ED50: NP: no protection; conditions: cited from earlier work
# mice [7] = conditions: literature data; cited from earlier work
# mice [8] = tested on: mice; set-up: unit not given beside the values; conditions: literature data; cited from earlier work
# [9] = tested on: GBR complex ([35S]TBPS site); assay: dissociation kinetics of [35S]TBPS in cortical P2 homogenates; format: binding, rat
# Experimental: An assay was performed to determine the effect of pentobarbital on the dissociation kinetics of [^35 S]TBPS in rat cerebral cortical membranes. This assay was performed in accordance with the procedures outlined above. […] Dissociation of bound [^35 S]TBPS was initiated by 2 micromolar TBPS in all cases.
# [10] = tested on: premenstrual syndrome (PMS), PND, catamenial epilepsy patients; conditions: cited from earlier work
# [11] = read-out: +5 μM GABA IC50, +5 μM GABA
# [12] = no added GABA (control), read-out: CONTROL IC50
# [13] = chemical convulsant administered i.v., Worms et al.
structure (smiles),measurement,setting,value
"C[C@]12C[C@H](O)[C@H]3[C@@H](CCC4=CC(=O)CC[C@@]43C)[C@@H]1CC[C@@H]2C(=O)CO [4-PREGNEN-11β,21- DIOL-3,20-DIONE]",MAXIMAL INHIBITION,[1],21
same,CONTROL IC50,[1]; no added GABA (control),INACTIVE
same,IC50,[1]; [11],> 100 µM
"CC(=O)[C@H]1CC[C@H]2[C@@H]3CC=C4C[C@@H](O)CC[C@]4(C)[C@H]3CC[C@]12C [5-PREGNAN-3β-OL- 20-ONE (PREGNENOLONE), 5-PREGNAN-3β-OL- 20-ONE]",MAXIMAL INHIBITION,[1],30
same,CONTROL IC50,[1]; no added GABA (control),INACTIVE
same,IC50,[1]; [11],> 100 µM
"C[C@]12CC[C@@H](O)C[C@@H]1CC[C@@H]1[C@@H]2CC[C@]2(C)[C@@H](C(=O)CO)CC[C@@H]12 [5-alpha-pregnan-3-alpha,21-diol-20-one]",affinity for the progesterone receptor,progesterone receptor,lack of affinity
"CC(O)[C@H]1CC[C@H]2[C@@H]3CC[C@@H]4C[C@H](O)CC[C@]4(C)[C@H]3CC[C@]12C (stereo partly drawn) [5-beta-pregnane-3-alpha,20 diol (5 BETA), 5-beta-pregnane-3-alpha,20 diol]",affinity for the progesterone receptor,progesterone receptor,lack of affinity
"C[C@]12CC[C@@H](O)C[C@@H]1CC[C@@H]1[C@@H]2CC[C@]2(C)[C@@H](O)CC[C@@H]12 [5α-ANDROSTAN-3α, 17β-DIOL]",MAXIMAL INHIBITION,[1],100
C[C@]12CCC(=O)C[C@@H]1CC[C@@H]1[C@@H]2CC[C@]2(C)[C@@H](O)CC[C@@H]12 [5α-ANDROSTAN-17β- OL-3-ONE],MAXIMAL INHIBITION,[1],52
same,IC50,[1]; [12],> 100 µM
"CC(O)[C@H]1CC[C@H]2[C@@H]3CC[C@H]4C[C@H](O)CC[C@]4(C)[C@H]3CC[C@]12C (stereo partly drawn) [5α-PREGNAN-3α,20- DIOL ([…]), 5α-PREGNAN-3α,20- DIOL]",MAXIMAL INHIBITION,[1],52
same,IC50,[1]; [12],0.359 µM
same,IC50,[1]; [11],0.082 µM
"C[C@]12CC[C@@H](O)C[C@@H]1CC[C@H]1[C@@H]3CC[C@H](C(=O)CO)[C@@]3(C)CC(=O)[C@@H]12 [5α-PREGNAN-3α-21- DIOL-11,20-DIONE]",IC50,[1]; [12],> 100 µM
CC(=O)[C@H]1CC[C@H]2[C@@H]3CC[C@H]4C[C@@H](O)CC[C@]4(C)[C@H]3CC[C@]12C [5α-PREGNAN-3β-OL- 20-ONE],MAXIMAL INHIBITION,[1],33
same,CONTROL IC50,[1]; no added GABA (control),INACTIVE
same,IC50,[1]; [11],> 100 µM
C[C@]12CC[C@@H]3c4ccc(O)cc4CC[C@H]3[C@@H]1CC[C@@H]2O [17β-ESTRADIOL],MAXIMAL INHIBITION,[1],0
same,+5 μM GABA IC50,[1]; +5 μM GABA,INACTIVE
same,CONTROL IC50,[1]; no added GABA (control),INACTIVE
CC(C)CCC[C@@H](C)[C@H]1CC[C@H]2[C@@H]3CC=C4C[C@@H](O)CC[C@]4(C)[C@H]3CC[C@]12C [CHOLESTEROL],MAXIMAL INHIBITION,[1],0
same,+5 μM GABA IC50,[1]; +5 μM GABA,INACTIVE
same,CONTROL IC50,[1]; no added GABA (control),INACTIVE
O=C1CN=C(c2ccccc2Cl)c2cc([N+](=O)[O-])ccc2N1 [Clonazepam],MES (maximal electroshock) ED50,[2],93
same,MTZ (metrazol) ED50,[3]; Swinyard & Woodhead,0.009
same,BIC (bicuculline) ED50,[4]; Swinyard & Woodhead,0.0086
same,PICRO (picrotoxin) ED50,[5]; Swinyard & Woodhead,0.043
same,STR (strychnine) ED50,[6]; Swinyard & Woodhead,NP
same,Rotorod (RR) ED50,mice [7],0.184
same,LD50,mice [8],> 6000
"NCCCC(=O)O [GABA, gamma-aminobutyric acid]",shift in dose-response curve for [35S]TBPS binding induced by (+)-bicuculline,"[1]; (+)-bicuculline 0.5-3.0 micromolar, FIGS. 1A and 1B",classical parallel shift
CCCC(C)C1(CC)C(=O)NC(=O)NC1=O (stereo not drawn) [Na pentobarbital],"Total percentage of specific sites, rapidly dissociating (R)","[9]; (**P < 0.01 vs control), alphaxalone 300 nM, 3a-OH-DHP 20 nM",48 ± 6 percentage
same,"Total percentage of specific sites, slowly dissociating (S)","[9]; (*P < 0.05 vs control), alphaxalone 300 nM, 3a-OH-DHP 20 nM",61 ± 6 percentage
same,"k-1, rapidly dissociating component (R)","[9]; [35S]TBPS dissociation, alphaxalone 300 nM, 3a-OH-DHP 20 nM",0.158 min⁻¹
same,"k-1, slowly dissociating component (S)","[9]; [35S]TBPS dissociation, pentobarbital 30 nM [sic], alphaxalone 300 nM, 3a-OH-DHP 20 nM",0.0186 min⁻¹
same,effect on dissociation mechanism/kinetics of [35S]TBPS (in words),"[9]; pentobarbital 30 micromolar, alphaxalone 300 nanomolar, 5-alpha-pregnan-3-alpha-hydroxy-20-one 20 nanomolar",induces a biphasic dissociation mechanism
CC(=O)[C@H]1CC[C@H]2[C@@H]3CCC4=CC(=O)CC[C@]4(C)[C@H]3CC[C@]12C [PROGESTERONE],MAXIMAL INHIBITION,[1],100
same,potency/efficacy/affinity at the GBR complex (in words),[1]; in vitro,very low potency
same,IC50,[1]; [12],> 100 µM
same,dose-response relationship in the treatment of PMS,[10]; Maddocks et al.,no dose-response relationship exists
same,"clinical effectiveness in PMS, PND, catamenial epilepsy",[10]; literature,not consistently effective
CCC1(c2ccccc2)C(=O)NC(=O)NC1=O [Phenobarbital],MES (maximal electroshock) ED50,[2],22
same,MTZ (metrazol) ED50,[3]; Swinyard & Woodhead,13
same,BIC (bicuculline) ED50,[4]; Swinyard & Woodhead,38
same,PICRO (picrotoxin) ED50,[5]; Swinyard & Woodhead,28
same,STR (strychnine) ED50,[6]; Swinyard & Woodhead,95
same,Rotorod (RR) ED50,mice [7],69
same,LD50,mice [8],265
O=C1NC(=O)C(c2ccccc2)(c2ccccc2)N1 [Phenytoin],MTZ (metrazol) ED50,[3]; Swinyard & Woodhead,NP
same,BIC (bicuculline) ED50,[4]; Swinyard & Woodhead,NP
same,PICRO (picrotoxin) ED50,[5]; Swinyard & Woodhead,NP
same,Maximum protection (strychnine),[6]; at 55-100 mg/kg,50%
same,LD50,mice [8],230
NC(=O)CCC/N=C(\c1ccc(Cl)cc1)c1cc(F)ccc1O [Progabide],MES (maximal electroshock) ED50,[2],75
same,MTZ (metrazol) ED50,[3]; [13],30
same,BIC (bicuculline) ED50,[4]; [13],30
same,PICRO (picrotoxin) ED50,[5]; [13],105
same,STR (strychnine) ED50,[6]; [13],75
same,LD50,mice [8],3000
CCCC(CCC)C(=O)O [Valproate],MES (maximal electroshock) ED50,[2],272
same,MTZ (metrazol) ED50,[3]; Swinyard & Woodhead,149
same,BIC (bicuculline) ED50,[4]; Swinyard & Woodhead,360
same,PICRO (picrotoxin) ED50,[5]; Swinyard & Woodhead,387
same,STR (strychnine) ED50,[6]; Swinyard & Woodhead,293
same,LD50,mice [8],1105
